pIC50, pKd: −log10 of the molar value.
Legend:
phospho-p68 = biological target: T1, phospho-p68 (Homo sapiens, UniProt P17844); assay: β-catenin dependent ATPase assay; format: biochemical
T1 construct: made in house
Method: ATPase activity was determined by measuring the released inorganic phosphate during ATP hydrolysis using a direct colorimetric assay (Shin et al., Cancer Res., 67:7572-7578 (2007); Yang et. al., Cell, 127:139-155 (2006)). A typical ATPase assay was carried out in 50 μl reaction volumes, containing 20 mM Tris-HCl pH 7.5, 200 mM NaCl, 1 mM MgCl2, 5 mM DTT, ˜1-2 of appropriate substrate, 4 mM ATP, and 10 μl of helicase. The ATPase reactions were incubated at 37° C. for 30 minutes. After incubation, 1 ml of malachitegreen-molybdenum reagent was added to the reaction mixture, and reactions were further incubated at room temperature for exactly 5 minutes. The absorption (A) at 630 nm was then measured. The concentrations of inorganic phosphate were determined by matching the A630nm in a standard curve of A630nm vs. known phosphate concentrations. The proteins, p68 or phospho-p68, used for this assay were prepared in-house similar to the procedure reported previously (Yang et al., Protein Expr. Purif., 35:327-333 (2004)). The percentage of inhibition by defining the ATPase activity of phospho-p68 without RX-5902 as zero percent inhibition was calculated and IC50 of RX-5902 was calculated by non-linear regression analysis using Kaledia Graph software program (Synergy Software, Reading, Pa.).
The experiment was repeated at lower concentrations of RX-5902 to calculate IC50.

CYP3A5 = CYP3A5 (Homo sapiens, UniProt P20815); assay: Loss of RX-5902 after incubation with expressed CYP450 isozyme; format: in vitro ADME; conditions: 30-minute incubation with expressed CYP3A5
Method: (§1) Two in vitro studies were performed to examine the involvement of specific cytochrome P450 (CYP450) isozymes in the in vitro metabolism of RX-5902. In the first study, the loss of RX-5902 was measured after incubation with expressed CYP450 isozymes (1A2, 2A6, 2B6, 2C8, 2C9, 2C19, 2D6, 3A4 and 3A5). […] In the second study, RX-5902 was incubated with pooled human liver microsomes in the presence of CYP450 isozyme-selective chemical inhibitors. The inhibitors tested were selective for 1A2, 2A6, 2B6, 2C8, 2C9, 2C19, 2D6, and 3A4/5.

CYP3A4 = CYP3A4 (Homo sapiens, UniProt P08684); assay: as above; format: in vitro ADME; conditions: 30-minute incubation with expressed CYP3A4
Method: as §1

Y593 phospho-p68 = biological target: T2, Y593 phospho-p68 (Homo sapiens, UniProt P17844); assay: Filter binding assay with 3H-labeled RX-5902; conditions: estimated by 50% of p68 bound to RX-5902
T2 construct: purchased Origene (Rockville, Md.)
Method: (§2) Recombinant β-catenin was used without further treatment whereas recombinant p68 protein was either used as p68 or phosphorylated by c-Abl for filter binding assay. Recombinant c-Abl was obtained from Abeam (Cambridge, Mass.).
(§3) Filter binding studies have been previously described elsewhere (Coombs et al., Proc. Natl. Acad. Sci. USA, 75:5291-5295 (1978). Briefly, recombinant p68 RNA helicase with/without tyrosine phosphorylation was added to the ^3H-labeled RX-5902 (10 Ci/mmol) with PBS. ^3H-labeled RX-5902 was synthesized from Quotient Bioresearch (Cardiff, UK). After incubation at room temperature for 30 minutes, the binding mixtures were loaded onto a nitrocellulose membrane. The membrane was washed five times with PBS, and then dried by vacuum. The amounts of RX-5902 bound to p68 with/without phosphorylation of p68 were determined by ^3H scintillation counting. The same procedure was done with ^3H-labeled RX-5902 alone without addition of p68 RNA helicase and sample p68 RNA helicase alone without addition of the ^3H-labeled RX-5902 as background ^3H scintillation counting. The binding percentages of p68 to the compound were calculated and plotted against concentrations. The dissociation constant (Kd) was estimated by the concentration at 50% of p68 bound to RX-5902 and calculated by linear regression analysis.

unphosphorylated p68 = biological target: T3, unphosphorylated p68 (Homo sapiens, UniProt P17844); assay: Filter binding assay with 3H-labeled RX-5902; conditions: filter binding studies
T3 construct: purchased Origene (Rockville, Md.)
Method: as §2, §3

T1 sequence (P17844 whole entry): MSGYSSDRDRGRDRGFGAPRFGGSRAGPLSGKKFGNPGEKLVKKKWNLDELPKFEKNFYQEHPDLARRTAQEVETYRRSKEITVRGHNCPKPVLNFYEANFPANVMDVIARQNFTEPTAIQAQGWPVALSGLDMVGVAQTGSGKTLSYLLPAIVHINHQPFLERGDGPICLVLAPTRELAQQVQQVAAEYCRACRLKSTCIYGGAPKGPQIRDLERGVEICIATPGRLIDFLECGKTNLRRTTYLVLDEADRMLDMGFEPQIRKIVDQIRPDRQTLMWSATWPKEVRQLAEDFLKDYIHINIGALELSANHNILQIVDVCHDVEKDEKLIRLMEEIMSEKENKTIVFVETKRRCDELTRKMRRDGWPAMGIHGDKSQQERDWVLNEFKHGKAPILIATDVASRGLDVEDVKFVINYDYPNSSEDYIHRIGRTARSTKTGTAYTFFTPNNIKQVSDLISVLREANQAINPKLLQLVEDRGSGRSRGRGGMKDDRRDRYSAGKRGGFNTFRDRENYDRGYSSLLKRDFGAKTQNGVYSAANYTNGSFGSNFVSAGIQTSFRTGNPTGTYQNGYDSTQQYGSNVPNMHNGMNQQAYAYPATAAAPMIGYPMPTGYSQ
T3 sequence (P17844 whole entry): as above
T2 sequence (P17844 whole entry): as above
Chain of CYP3A5 (P20815 whole entry): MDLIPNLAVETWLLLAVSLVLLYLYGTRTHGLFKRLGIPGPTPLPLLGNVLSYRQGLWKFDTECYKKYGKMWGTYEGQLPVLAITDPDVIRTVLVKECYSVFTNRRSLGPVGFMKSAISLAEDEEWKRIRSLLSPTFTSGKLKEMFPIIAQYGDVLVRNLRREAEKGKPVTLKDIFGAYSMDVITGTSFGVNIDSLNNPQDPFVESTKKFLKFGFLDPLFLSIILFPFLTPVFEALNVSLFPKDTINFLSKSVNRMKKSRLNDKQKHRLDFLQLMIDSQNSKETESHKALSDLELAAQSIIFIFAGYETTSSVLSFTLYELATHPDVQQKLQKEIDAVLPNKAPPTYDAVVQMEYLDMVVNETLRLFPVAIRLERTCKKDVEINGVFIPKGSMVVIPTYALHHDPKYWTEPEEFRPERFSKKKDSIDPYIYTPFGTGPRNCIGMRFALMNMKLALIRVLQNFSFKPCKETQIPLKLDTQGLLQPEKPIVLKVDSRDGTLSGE
Chain of CYP3A4 (P08684 whole entry): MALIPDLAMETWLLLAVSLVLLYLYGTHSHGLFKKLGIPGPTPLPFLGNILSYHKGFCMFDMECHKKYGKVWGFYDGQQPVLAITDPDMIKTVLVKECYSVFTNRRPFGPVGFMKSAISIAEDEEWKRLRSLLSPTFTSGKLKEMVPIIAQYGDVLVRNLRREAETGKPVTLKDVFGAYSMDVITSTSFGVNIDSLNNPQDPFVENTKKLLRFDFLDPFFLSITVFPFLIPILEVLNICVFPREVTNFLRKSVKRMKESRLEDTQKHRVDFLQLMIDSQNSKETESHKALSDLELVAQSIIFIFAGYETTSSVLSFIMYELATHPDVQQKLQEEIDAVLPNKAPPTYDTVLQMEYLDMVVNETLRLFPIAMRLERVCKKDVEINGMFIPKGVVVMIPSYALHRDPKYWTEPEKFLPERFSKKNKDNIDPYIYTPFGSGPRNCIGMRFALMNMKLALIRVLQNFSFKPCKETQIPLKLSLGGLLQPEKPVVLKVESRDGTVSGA

**Q.** How did the “β-catenin dependent ATPase activity” value (phospho-p68; 0.2 μM) turn out when `COc1cc(OC)cc(N2CCN(C(=O)Nc3nc4cc(F)ccc4nc3OC)CC2)c1` [RX-5902, 4-(3,5-dimethoxyphenyl)-N-(7-fluoro-3-methoxyquinoxalin-2-yl)piperazine-1-carboxamide] was run?
**A.** The value was “largely diminished”.

**Q.** And the pIC50 (phospho-p68; read-out: IC50 for the inhibition of β-catenin dependent ATPase activity)?
**A.** The pIC50 was 7.21.

**Q.** What about the “loss of RX-5902” value (CYP3A5) of the same compound?
**A.** The value was 54%.

**Q.** And the “loss of RX-5902” value (CYP3A4)?
**A.** Its value is 87%.

**Q.** What about the pKd (Y593 phospho-p68) of the same compound?
**A.** Its pKd is ~7.72.

**Q.** What about the “interaction with unphosphorylated p68” value (unphosphorylated p68) of the same compound?
**A.** Its value is “did not interact”.
